Reference: ChEMBL document CHEMBL1201862, “PubChem BioAssay data set” (2004)
Values joined by “and” are separate entries in the source; they are usually repeats but may differ in a detail not shown here. Identical values can stand only once.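 96-well plates; 48 h exposure; 5 concentrations. Endpoints by linear interpolation between flanking doses. Not reached: highest tested concentration assigned. Here, GI50 denotes the concentration required for 50% inhibition of growth.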 Active and inactive are the calls of the source. Cut-off read from the data, not from the text of the source: active = GI50 up to about 1.1 µM and inactive = higher. Non-standard residues stand in square brackets, D forms with d. Residues, ends and D or L forms follow the SMILES beside them. *: point of attachment. NMeF = CN[CH](Cc1ccccc1)C(=O)O; NMeV = CN[CH](C(=O)O)C(C)C; Boc = CC(C)(C)OC(=O)*; OBn = c1ccc(CO*)cc1

Assays:
Experiment in all cases: NCI tumour cell line growth inhibition, 48 h
786-0 = test system: 786-0
A498 = test system: A498
A549 = test system: A549
ACHN = test system: ACHN
BT-549 = test system: BT-549
CAKI-1 = test system: CAKI-1
CCRF-CEM = test system: CCRF-CEM
COLO 205 = test system: COLO 205
DU-145 = test system: DU-145
EKVX = test system: EKVX
HCC 2998 = test system: HCC 2998
HCT-116 = test system: HCT-116
HCT-15 = test system: HCT-15
HL-60 = test system: HL-60
HOP-62 = test system: HOP-62
HOP-92 = test system: HOP-92
HT-29 = test system: HT-29
Hs-578T = test system: Hs-578T
IGROV-1 = test system: IGROV-1
K562 = test system: K562
KM12 = test system: KM12
LOX IMVI = test system: LOX IMVI
M14 = test system: M14
MCF7 = test system: MCF7
MDA-MB-231 = test system: MDA-MB-231
MDA-MB-435 = test system: MDA-MB-435
MDA-N = test system: MDA-N
MOLT-4 = test system: MOLT-4
Malme-3M = test system: Malme-3M
NCI-H226 = test system: NCI-H226
NCI-H23 = test system: NCI-H23
NCI-H460 = test system: NCI-H460
NCI-H522 = test system: NCI-H522
NCI/ADR-RES = test system: NCI/ADR-RES
OVCAR-3 = test system: OVCAR-3
OVCAR-4 = test system: OVCAR-4
OVCAR-5 = test system: OVCAR-5
OVCAR-8 = test system: OVCAR-8
PC-3 = test system: PC-3
RPMI-8226 = test system: RPMI-8226
RXF 393 = test system: RXF 393
SF-268 = test system: SF-268
SF-295 = test system: SF-295
SF-539 = test system: SF-539
SK-MEL-28 = test system: SK-MEL-28
SK-MEL-2 = test system: SK-MEL-2
SK-MEL-5 = test system: SK-MEL-5
SK-OV-3 = test system: SK-OV-3
SN12C = test system: SN12C
SNB-19 = test system: SNB-19
SNB-75 = test system: SNB-75
SR = test system: SR
SW-620 = test system: SW-620
T47D = test system: T47D
TK-10 = test system: TK-10
U-251 = test system: U-251
UACC-257 = test system: UACC-257
UACC-62 = test system: UACC-62
UO-31 = test system: UO-31
DMS-114 = test system: DMS-114
DMS-273 = test system: DMS-273
DLD-1 = test system: DLD-1
HOP-18 = test system: HOP-18
LXFL 529 = test system: LXFL 529
M19-MEL = test system: M19-MEL

In the case of `[O-]/[N+](=C\c1ccccc1OC(=S)S)c1ccc(Cl)cc1`, the GI50 (786-0) is reported as 14.6 µM (inactive), the GI50 (A498) is reported as 59.8 µM (inactive) and the GI50 (A549) is reported as > 100 µM (inactive). For the same compound, the GI50 (ACHN) was 20.6 µM (inactive), the GI50 (BT-549) was 24.1 µM (inactive) and the GI50 (CAKI-1) was 13.6 µM (inactive). The GI50 (CCRF-CEM) was 2.42 µM (inactive), the GI50 (COLO 205) was 3.92 µM (inactive) and the GI50 (DU-145) was 42.9 µM (inactive). The GI50 (EKVX) was 25.7 µM (inactive), the GI50 (HCC 2998) was 45.3 µM (inactive) and the GI50 (HCT-116) was 10.1 µM (inactive). The GI50 (HCT-15) was 15.7 µM, the GI50 (HL-60) was 220 nM (active) and the GI50 (HOP-62) was 47.9 µM (inactive). The GI50 (HOP-92) was 2.87 µM (inactive), the GI50 (HT-29) was 22.4 µM (inactive) and the GI50 (Hs-578T) was 51.1 µM (inactive). The GI50 (IGROV-1) was 12.1 µM (inactive), the GI50 (K562) was 10.6 µM (inactive) and the GI50 (KM12) was 26.7 µM (inactive). For the same compound, the GI50 (LOX IMVI) was 14.9 µM (inactive), the GI50 (M14) was 24.2 µM (inactive) and the GI50 (MCF7) was 13 µM (inactive). The GI50 (MDA-MB-231) was 13.7 µM (inactive), the GI50 (MDA-MB-435) was 15.7 µM (inactive) and the GI50 (MDA-N) was 18 µM (inactive). For the same compound, the GI50 (MOLT-4) was 5.46 µM (inactive), the GI50 (Malme-3M) was > 100 µM (inactive) and the GI50 (NCI-H226) was 48.4 µM (inactive). The GI50 (NCI-H23) was 23.8 µM (inactive), the GI50 (NCI-H460) was 292 nM (active) and the GI50 (NCI-H522) was 16.8 µM (inactive). The GI50 (NCI/ADR-RES) was 18.5 µM (inactive), the GI50 (OVCAR-3) was 18.7 µM (inactive) and the GI50 (OVCAR-4) was 13.9 µM (inactive). For the same compound, the GI50 (OVCAR-5) was 21.2 µM (inactive), the GI50 (OVCAR-8) was 8.24 µM (inactive) and the GI50 (PC-3) was 23.9 µM (inactive). The GI50 (RPMI-8226) was 5.7 µM (inactive), the GI50 (RXF 393) was 45.7 µM (inactive) and the GI50 (SF-268) was 19.5 µM (inactive). For the same compound, the GI50 (SF-295) was 177 nM (active), the GI50 (SF-539) was 35.6 µM (inactive) and the GI50 (SK-MEL-28) was 3.57 µM (inactive). For the same compound, the GI50 (SK-MEL-2) was 20 µM (inactive), the GI50 (SK-MEL-5) was 0.224 µM (active) and the GI50 (SK-OV-3) was > 100 µM (inactive). For the same compound, the GI50 (SN12C) was 24.8 µM (inactive), the GI50 (SNB-19) was 83.4 µM (inactive) and the GI50 (SNB-75) was > 100 µM (inactive). The GI50 (SR) was 21.8 µM (inactive), the GI50 (SW-620) was 11.2 µM (inactive) and the GI50 (T47D) was 6.01 µM (inactive). For the same compound, the GI50 (TK-10) was > 100 µM (inactive), the GI50 (U-251) was 19.8 µM (inactive) and the GI50 (UACC-257) was 21.5 µM (inactive). For the same compound, the GI50 (UACC-62) was 11.9 µM (inactive) and the GI50 (UO-31) was 19.8 µM (inactive).
`CC(C)C(NC(=O)OC(C)(C)C)C(=O)N(C)C(Cc1ccccc1)C(=O)N(C)C(C(=O)OCc1ccccc1)C(C)C` (stereo not drawn) (Boc-Val-[NMeF]-[NMeV]-OBn; configuration not given here) was tested, and the GI50 (786-0) was > 100 µM (inactive), the GI50 (A549) was 39.5 µM (inactive) and 46.8 µM (inactive) and the GI50 (COLO 205) was 37.7 µM (inactive) and 44.2 µM (inactive). The GI50 (DMS-114) was 29.4 µM (inactive) and 30.5 µM (inactive), the GI50 (DMS-273) was 34.1 µM (inactive) and 33.8 µM (inactive) and the GI50 (EKVX) was > 100 µM (inactive) and 62.1 µM (inactive). The GI50 (HCC 2998) was > 100 µM (inactive), the GI50 (HCT-116) was 40 µM (inactive) and 28.4 µM (inactive) and the GI50 (HCT-15) was 67.1 µM and 79.3 µM. For the same compound, the GI50 (HL-60) was 33.4 µM (inactive) and 19.5 µM (inactive), the GI50 (HOP-62) was 85.9 µM (inactive) and the GI50 (IGROV-1) was 91.2 µM (inactive). The GI50 (M14) was 59.3 µM (inactive) and 94.4 µM (inactive), the GI50 (Malme-3M) was > 100 µM (inactive) and the GI50 (NCI-H226) was > 100 µM (inactive) and 73.5 µM (inactive). For the same compound, the GI50 (NCI-H23) was 37.1 µM (inactive) and 68.5 µM (inactive), the GI50 (NCI-H460) was 39 µM (inactive) and 41 µM (inactive) and the GI50 (NCI-H522) was 12.2 µM (inactive) and 22.8 µM (inactive). The GI50 (OVCAR-8) was 74.6 µM (inactive) and 70.5 µM (inactive), the GI50 (SF-268) was > 100 µM (inactive) and the GI50 (SF-295) was 17.6 µM (inactive) and 34.6 µM (inactive). For the same compound, the GI50 (SK-MEL-28) was > 100 µM (inactive), the GI50 (SK-MEL-5) was 15.4 µM (inactive) and the GI50 (SK-OV-3) was > 100 µM (inactive). For the same compound, the GI50 (SR) was 27.9 µM (inactive) and 22.6 µM (inactive), the GI50 (SW-620) was 75.2 µM (inactive) and the GI50 (TK-10) was > 100 µM (inactive). For the same compound, the GI50 (U-251) was 82.2 µM (inactive) and 43.8 µM (inactive), the GI50 (UACC-62) was 81.8 µM (inactive) and the GI50 (UO-31) was 85.3 µM (inactive) and 53.1 µM (inactive).
In the case of `COc1ccc(/C=N/NC(=O)c2sc(=S)n(-c3ccccc3)c2N)cc1`, the GI50 (A549) is reported as > 100 µM (inactive), the GI50 (ACHN) is reported as 20.7 µM (inactive) and the GI50 (CCRF-CEM) is reported as > 100 µM (inactive). For the same compound, the GI50 (COLO 205) was > 100 µM (inactive), the GI50 (DLD-1) was > 100 µM (inactive) and the GI50 (HCC 2998) was 73.5 µM (inactive). For the same compound, the GI50 (HCT-116) was 91.6 µM (inactive), the GI50 (HL-60) was > 100000 nM (inactive) and the GI50 (HOP-18) was 39.4 µM (inactive). The GI50 (HOP-62) was 22.2 µM (inactive), the GI50 (HOP-92) was 9.51 µM (inactive) and the GI50 (HT-29) was 73.8 µM (inactive). For the same compound, the GI50 (IGROV-1) was > 100 µM (inactive), the GI50 (K562) was 1.48 µM (inactive) and the GI50 (KM12) was 7.85 µM (inactive). The GI50 (LXFL 529) was 51.2 µM (inactive), the GI50 (M19-MEL) was > 100 µM (inactive) and the GI50 (MOLT-4) was > 100 µM (inactive). For the same compound, the GI50 (NCI-H226) was > 100 µM (inactive), the GI50 (NCI-H23) was > 100 µM (inactive) and the GI50 (NCI-H460) was 6040 nM (inactive). For the same compound, the GI50 (NCI-H522) was 42.1 µM (inactive), the GI50 (OVCAR-3) was 83.9 µM (inactive) and the GI50 (OVCAR-5) was > 100 µM (inactive). For the same compound, the GI50 (OVCAR-8) was 44.7 µM (inactive), the GI50 (SF-268) was 21.4 µM (inactive) and the GI50 (SF-295) was 19800 nM (inactive). The GI50 (SF-539) was 6.92 µM (inactive), the GI50 (SK-MEL-28) was 33.1 µM (inactive) and the GI50 (SK-MEL-5) was 71.4 µM (inactive). The GI50 (SK-OV-3) was 11.2 µM (inactive), the GI50 (SNB-19) was 28.1 µM (inactive) and the GI50 (SNB-75) was 1.6 µM (inactive). The GI50 (SR) was > 100 µM (inactive), the GI50 (SW-620) was > 100 µM (inactive) and the GI50 (TK-10) was 7.14 µM (inactive). The GI50 (U-251) was 66.2 µM (inactive), the GI50 (UACC-257) was > 100 µM (inactive) and the GI50 (UACC-62) was 89.1 µM (inactive). The GI50 (UO-31) was > 100 µM (inactive).
